Laboratory results taken from patent US20140227375A1, “PIP-2 Inhibition-Based Antiviral and Anti-Hyperlipidemic Therapies” (priority 2008, published 2014).

Biological target: HCV replication
Test: Luciferase reporter-linked transient HCV replication assay (FL-J6/JFH-5′C19Rluc2AUbi RNA)
Type: cell-based, hepatitis C virus (HCV)
Protocol: FIGS. 7A-7B. A PIP-2 ligand inhibits HCV replication in a dose-dependent manner. Luciferase reporter-linked HCV replication assay. Huh 7.5 cells were electroporated with 10 ug of in vitro-transcribed wild type, FL-J6/JFH-5′C19Rluc2AUbi RNAs. Electroporated cells were treated with […] of neomyin. Renilla luciferase activities were measured at 5 days after electroporation. Alamar blue assays were performed to compare relative cell viabilities.
The NS5A PIP2 interaction is amenable to pharmacologic disruption. […] Such inhibitors represent a valuable new class of anti-HCV agents to be included in future therapeutic cocktails designed to maximize efficiency of, and minimize resistance to, therapies for treating hepatitis C.
The electroporated cells were diluted in 18 ml of cell culture medium. 1 ml of cells was aliquoted in 6 well tissue culture plates. Electroporated cells were treated with 0, 172, 345, 689, 1378, and 2756 μM of neomyin for 5 days. Renilla luciferase activities were measured by using renilla luciferase kit from Promega (Madison, Wis.).

## neomycin
Renilla luciferase activity 5 days after electroporation, read-out: EC50 against HCV replication
  EC50: 200 µM
Increasing concentrations of neomycin (0-2756 μM), 5 days
  inhibition of HCV genome replication: dose-dependent increase in inhibition of HCV genome replication
